Consider 3 compounds from BindingDB's records for doi:10.1007/s002100000312 (Biocentre Niederursel, 2000).

The term Ki denotes a dissociation constant, usually derived from enzyme kinetics or from competition with a known ligand. A high value points to lower affinity.

Where only a bound is given, the exact number is not on record here.

Test [1] addresses T1, P2X purinoceptor 1 (Homo sapiens, UniProt P51575).
T1 sequence (P51575 whole entry): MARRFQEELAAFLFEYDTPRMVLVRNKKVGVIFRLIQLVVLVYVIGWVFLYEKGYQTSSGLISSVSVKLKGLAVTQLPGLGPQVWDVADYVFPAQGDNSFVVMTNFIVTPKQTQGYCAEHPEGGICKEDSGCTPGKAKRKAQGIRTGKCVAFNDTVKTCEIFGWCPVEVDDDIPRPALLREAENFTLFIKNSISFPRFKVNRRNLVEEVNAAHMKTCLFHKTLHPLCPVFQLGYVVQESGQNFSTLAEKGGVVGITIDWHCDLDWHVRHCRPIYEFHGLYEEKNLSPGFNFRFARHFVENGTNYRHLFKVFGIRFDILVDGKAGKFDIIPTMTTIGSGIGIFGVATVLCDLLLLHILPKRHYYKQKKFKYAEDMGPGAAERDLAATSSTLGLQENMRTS

Another test deals with T2, P2X purinoceptor 2 (Rattus norvegicus, UniProt P49653).
T2 sequence (P49653 whole entry): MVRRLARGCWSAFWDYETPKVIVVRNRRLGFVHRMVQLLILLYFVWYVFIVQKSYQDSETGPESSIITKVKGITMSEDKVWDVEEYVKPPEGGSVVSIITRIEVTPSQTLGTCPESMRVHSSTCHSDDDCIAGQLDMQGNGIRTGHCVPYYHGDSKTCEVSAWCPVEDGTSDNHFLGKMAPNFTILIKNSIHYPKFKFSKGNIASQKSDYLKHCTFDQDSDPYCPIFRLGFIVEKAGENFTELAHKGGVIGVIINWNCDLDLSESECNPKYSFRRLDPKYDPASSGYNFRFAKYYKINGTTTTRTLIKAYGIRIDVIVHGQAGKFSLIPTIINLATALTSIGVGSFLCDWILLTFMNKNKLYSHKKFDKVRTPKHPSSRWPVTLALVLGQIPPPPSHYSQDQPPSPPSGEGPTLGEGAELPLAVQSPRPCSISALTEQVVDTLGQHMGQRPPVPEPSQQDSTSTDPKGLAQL

The target of another test is T3, P2X purinoceptor 4 (Homo sapiens, UniProt Q99571).
T3 sequence (Q99571 whole entry): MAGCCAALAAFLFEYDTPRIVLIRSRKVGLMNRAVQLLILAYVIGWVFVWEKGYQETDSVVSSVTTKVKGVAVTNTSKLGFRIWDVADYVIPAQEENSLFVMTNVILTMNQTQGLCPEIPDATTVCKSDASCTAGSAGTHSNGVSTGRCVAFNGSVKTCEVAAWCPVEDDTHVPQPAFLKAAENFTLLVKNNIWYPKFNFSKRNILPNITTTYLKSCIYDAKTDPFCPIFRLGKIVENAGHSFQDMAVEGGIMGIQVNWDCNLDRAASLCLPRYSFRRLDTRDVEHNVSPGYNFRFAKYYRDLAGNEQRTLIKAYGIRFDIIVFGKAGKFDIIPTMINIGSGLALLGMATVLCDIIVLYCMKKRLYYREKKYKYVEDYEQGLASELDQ

The target of the next test is T4, P2X purinoceptor 7 (Homo sapiens, UniProt Q99572).
T4 sequence (Q99572 whole entry): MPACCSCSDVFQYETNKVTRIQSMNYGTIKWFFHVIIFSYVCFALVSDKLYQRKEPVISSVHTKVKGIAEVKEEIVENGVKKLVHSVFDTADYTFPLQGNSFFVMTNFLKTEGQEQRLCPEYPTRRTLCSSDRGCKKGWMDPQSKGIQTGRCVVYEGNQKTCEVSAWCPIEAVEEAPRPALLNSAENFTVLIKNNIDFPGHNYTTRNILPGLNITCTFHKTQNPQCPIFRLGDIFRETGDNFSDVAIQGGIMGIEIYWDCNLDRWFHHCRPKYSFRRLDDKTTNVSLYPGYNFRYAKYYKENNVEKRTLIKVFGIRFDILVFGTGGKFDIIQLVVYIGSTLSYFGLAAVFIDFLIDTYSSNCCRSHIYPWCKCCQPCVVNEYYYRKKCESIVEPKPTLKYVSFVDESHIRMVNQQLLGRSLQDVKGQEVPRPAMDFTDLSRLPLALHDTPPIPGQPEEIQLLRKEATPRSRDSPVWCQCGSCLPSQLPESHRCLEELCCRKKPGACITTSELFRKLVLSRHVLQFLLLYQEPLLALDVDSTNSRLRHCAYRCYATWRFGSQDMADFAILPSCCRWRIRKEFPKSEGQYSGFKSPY

The next test concerns the target T5, P2X purinoceptor 3 (Rattus norvegicus, UniProt P49654).
T5 sequence (P49654 whole entry): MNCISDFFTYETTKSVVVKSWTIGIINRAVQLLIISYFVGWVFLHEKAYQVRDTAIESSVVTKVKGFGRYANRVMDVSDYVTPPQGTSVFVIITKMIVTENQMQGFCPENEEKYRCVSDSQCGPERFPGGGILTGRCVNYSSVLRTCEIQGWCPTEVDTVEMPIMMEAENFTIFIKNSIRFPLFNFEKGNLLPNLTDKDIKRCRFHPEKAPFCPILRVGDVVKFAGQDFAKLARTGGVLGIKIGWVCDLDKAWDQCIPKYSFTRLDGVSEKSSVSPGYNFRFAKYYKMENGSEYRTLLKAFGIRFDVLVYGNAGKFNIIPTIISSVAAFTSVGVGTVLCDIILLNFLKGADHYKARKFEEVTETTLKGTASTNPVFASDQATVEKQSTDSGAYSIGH

Test [2] addresses T6, P2X purinoceptor 1 (Rattus norvegicus, UniProt P47824).
T6 sequence (P47824 whole entry): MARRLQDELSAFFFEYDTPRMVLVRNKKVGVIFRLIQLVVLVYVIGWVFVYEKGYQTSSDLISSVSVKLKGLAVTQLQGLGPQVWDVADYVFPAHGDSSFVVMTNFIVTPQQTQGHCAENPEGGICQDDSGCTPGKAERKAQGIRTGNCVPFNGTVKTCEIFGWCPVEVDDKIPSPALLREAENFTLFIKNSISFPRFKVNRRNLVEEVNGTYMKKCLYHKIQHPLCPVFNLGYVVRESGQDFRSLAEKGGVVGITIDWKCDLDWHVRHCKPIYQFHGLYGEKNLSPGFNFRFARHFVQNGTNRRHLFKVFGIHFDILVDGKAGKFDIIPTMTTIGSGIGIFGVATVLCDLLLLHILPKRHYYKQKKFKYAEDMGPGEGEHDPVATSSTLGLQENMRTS

With `O=C(Nc1ccc(C(=O)Nc2ccc(C(=O)Nc3ccc(S(=O)(=O)O)c4cc(S(=O)(=O)O)cc(S(=O)(=O)O)c34)cc2)cc1)Nc1ccc(C(=O)Nc2ccc(C(=O)Nc3ccc(S(=O)(=O)O)c4cc(S(=O)(=O)O)cc(S(=O)(=O)O)c34)cc2)cc1` [CAS_5311315], the Ki on P2X purinoceptor 1 [1] was 1 µM; on P2X purinoceptor 2 it was over 10 µM; at P2X purinoceptor 4, over 10 µM; at P2X purinoceptor 7 it was over 10 µM; on P2X purinoceptor 3, 1 µM; at P2X purinoceptor 1 [2], 1 µM.

With `O=C(Nc1cccc(Nc2ccc(S(=O)(=O)O)c3cc(S(=O)(=O)O)cc(S(=O)(=O)O)c23)c1)Nc1cccc(Nc2ccc(S(=O)(=O)O)c3cc(S(=O)(=O)O)cc(S(=O)(=O)O)c23)c1` [NSC_5311313], the Ki at P2X purinoceptor 2 was over 10 µM; at P2X purinoceptor 4, over 10 µM; on P2X purinoceptor 3, 1 µM; on P2X purinoceptor 1 [2], 1 µM.

Take `Cc1ccc(C(=O)Nc2ccc(S(=O)(=O)O)c3cc(S(=O)(=O)O)cc(S(=O)(=O)O)c23)cc1NC(=O)c1cccc(NC(=O)Nc2cccc(C(=O)Nc3cc(C(=O)Nc4ccc(S(=O)(=O)O)c5cc(S(=O)(=O)O)cc(S(=O)(=O)O)c45)ccc3C)c2)c1` [suramin]: the inhibition constant Ki is over 10 µM on P2X purinoceptor 2, 5 µM on P2X purinoceptor 4, over 10 µM at P2X purinoceptor 3 and 0.05 µM at P2X purinoceptor 1 [2].
